Reference: patent US9763900B2, “Chemical chaperonins as novel molecular modulators of beta protein aggregation present in conformational diseases” (Centro de Neurociencias de Cuba (NEURONIC), priority 2013, dated 2017)

What was measured:
[1] = tested on: rat Cerebellar Granular Cells (CGC); assay: Cell viability (MTT) of CGC exposed to IAPP 20-29 monomer or aggregated; type: cell-based
Description: The solutions fragment of IAPP 20-29 (MM 1029 Da) are prepared in PBS buffer (100 mM, pH 7.4; NaCl 100 mM). Monomeric peptide concentration was 5.8 mM and the aggregation peptide was 32.6 μM in DMSO. Protein concentration is calculated using the calibration curve.
Chaperonin: solutions of chaperonin B and D (25 μM), selected as non-limiting examples of Formula I, are prepared in 1.2 mL of DMSO and dilute with the buffer to obtain a final volume of […]. Curcumin (5.5 mM) used as reference compound was prepared in ethanol. (Yang, F. et al. in J. Biol Chem 2005, 280, 5892-5901). […]
In particular, in this invention, the viability of CGC cell cultures was assessed with the 20-29 fragment of IAPP, in its monomeric and aggregated form or with the mixtures of protein:chaperonin at different molar ratios. Briefly, in all samples of CGC, half of the volume of medium is removed to add, independently, the quantities of tested protein or mixtures of peptide:chaperonin with different molar ratios (1:0.3 or 1:1). […]
In FIG. 12, the results of the assessment of cell viability was observed by MTT assay, which were analyzed by the one-way ANOVA statistical test, followed by a posteriori LSD test (LSD for its acronym in English Least Significant Difference).

[2] = Tubis et al. 1960; cited from earlier work

| Compound | CGC viability with IAPP monomer plus reference compound versus monomer alone ([1]; IAPP 20-29 monomer, 20 hours, p>0.05) | CGC viability with aggregated IAPP 20-29 plus compound versus aggregated fragment alone ([1]; aggregated form of IAPP 20-29, 20 hours) | Fraction able to cross the blood brain barrier (BBB) [2] [%] |
| --- | --- | --- | --- |
| COc1cc(/C=C/C(=O)CC(=O)/C=C/c2ccc(O)c(OC)c2)ccc1O [curcumin] | no significant differences | marked cytoprotective effect | – |
| Nc1c(/N=N/c2ccc(-c3ccc(/N=N/c4cc(S(=O)(=O)O)c5ccccc5c4N)cc3)cc2)cc(S(=O)(=O)O)c2ccccc12 [CR, Congo Red] | – | – | 0.03 |
